Experimental data: patent US9883691B2, “Food and beverage products containing 1,3-propanediol and methods of modifying flavor release using 1,3-propanediol” (Kraft Foods Group Brands LLC, priority 2012, dated 2018)

Legend:
Type in all cases: physicochemical
[1] = PTR-MS headspace release in neat solvent, solvent/solvent experiment (Example 5); design: key to Release Differences: “Z” indicates that 1,3-propanediol had higher equilibrium maximum (meaning more of the flavor was released in 1,3-propanediol); “P” indicates that propylene glycol had higher equilibrium maximum; “-” indicates no statistical difference (95% significance) between the two samples; conditions: 1.5 hrs equilibration; for Release Differences: 1,3-propanediol versus propylene glycol as sole solvent, 95% significance
Protocol: […]. Then the head space was analyzed as described above.
0.86 grams of the concentrate was added to 100 grams of either propylene glycol or 1,3-propanediol to provide a 1,3-propanediol diluted concentrate or propylene glycol diluted concentrate. The diluted concentrates were then further diluted as outlined in Table 10 below.
A 15 gram sample was weighed into a 4 oz vessel and analyzed at 1.5 hrs. of equilibration time as described in the method of Example 4.

[2] = PTR-MS headspace release with various non-aqueous liquids (diols) at 0.05:100 (Example 3); conditions: ratio 0.05:100; for PTR-MS headspace release in 1,3-butanediol: non-aqueous liquid 1,3-butanediol; for PTR-MS headspace release in 1,3-butanediol / PTR-MS headspace release in 1,3-propanediol / PTR-MS headspace release in 1,4-butanediol / PTR-MS headspace release in 1,7-heptanediol / PTR-MS headspace release in Propylene glycol: diluted in water; for PTR-MS headspace release in 1,3-propanediol: non-aqueous liquid 1,3-propanediol; for PTR-MS headspace release in 1,4-butanediol: non-aqueous liquid 1,4-butanediol; for PTR-MS headspace release in 1,7-heptanediol: non-aqueous liquid 1,7-heptanediol; for PTR-MS headspace release in Propylene glycol: non-aqueous liquid propylene glycol
Protocol: […]. The flavoring was then diluted in water for analysis. The final concentration of each compound was held constant at 8 ppm except furfuryl mercaptan was included at 1.6 ppm to maintain a constant flavor level in the resulting beverage while the non-aqueous liquid varied but the ratio of each compound to non-aqueous liquid was held constant at 0.05:100. A variety of non-aqueous liquids were evaluated, including 1,4-butandiol; 1,7-heptandiol; 1,3-butandiol, propylene glycol, and 1,3-propanediol.
Samples were analyzed by PTR-MS as described in Example 1.
Percent suppression was calculated by the following formula: (I1-3-diol−Ialternate diol)/Ialternate diol×100.

[3] = PTR-MS real-time headspace release, watermelon flavor model in water (Example 1); design: Sample A (PG) Mean / Sample B (1,3-propanediol) Mean: unit not given here; conditions: for Sample B (1,3-propanediol) Mean / Sample A (PG) Mean: PTR-MS headspace, diluted in water, 90 minutes equilibration, mean of three; for Sample B (1,3-propanediol) Mean: watermelon flavor concentrate in 1,3-propanediol; for Sample A (PG) Mean: watermelon flavor concentrate in propylene glycol; for Percent Release Difference: Sample B (1,3-propanediol) relative to Sample A (PG)
Protocol: The impact of 1,3-propanediol on the release of flavor compounds can be analyzed by Proton Transfer Reaction Mass Spectrometry (PTR-MS; model TOF-8000 from Ionicon Analytik Inc.), where real-time headspace release of volatiles is measured. A sampling apparatus is needed in conjunction with the PTR-MS inlet to prevent variations caused by headspace kinetics. By one exemplary approach, the sampling apparatus includes a 4 ounce sample vessel equipped with a 2-hole lid which may be sealed by an adhesive film to allow equilibration. […]. The holes are equal sized (˜2 mm diameter) and match the outer diameter of the PTR-MS inlet line. The flow of the dilution gas into the vessel is regulated by the vacuum and proportional valve of the PTR-MS inlet system. The sample vessel has a base diameter of 47 mm and is 45 mm high, of which 8 mm of height is occupied by the sample in the vessel in these experiments. The 2 holes in the lid are equidistant from the edge of the vessel (˜20 mm) and about 30 mm from each other. The PTR-MS inlet is braced by clamps in a fixed position vertically above the laboratory bench (˜55 mm) and a silicone rubber depth gauge is affixed to the PTR-MS inlet tubing and set at 18 mm. The PTR-MS inlet is thus consistently oriented in a vertical position 18 mm below the inside lid of the vessel and 19 mm above the sample in the vessel. The sample vessel is then held in place during sampling according to the depth gauge on the inlet line and the vessel is subsequently supported on the bench by a 10 mm plastic spacer.
15 grams of the sample to be tested (e.g., food or beverage product containing 1,3-propanediol) are added to the vessel. The vessel is sealed and allowed to equilibrate at room temperature (˜22° C.) for 90 minutes. At the time of sampling, the seal is removed from both the sampling hole and the dilution gas hole in the lid and the vessel is immediately affixed to the PTR-MS inlet via the sampling hole. The real-time released flavor is measured from the headspace of the sample vessel for two minutes (according to the conditions listed in Table 1 below). A comparative sample is prepared that is otherwise identical to the test sample but contains propylene glycol or water instead of 1,3-propanediol. The comparative sample is then analyzed in triplicate by PTR-MS using the above-described procedure. The data can be analyzed using PTR-MS Viewer, Version 3.0.0.101 (Ionicon Analytik G.m.b.H). The point of maximum intensity for each compound of interest can be determined and recorded according to the PTR-MS Viewer software. The maximum intensity in counts over the timescale for each compound of interest can be used for data analysis as it reflects the static equilibrium headspace concentration in the system at the moment of seal removal. Due to the necessity of a dilution gas, the volatile concentration decreases over time as the compounds of interest re-equilibrate to a state of dynamic equilibrium in the headspace.
[…]. Sample A was prepared with 20 grams watermelon flavor concentrate and 80 grams propylene glycol. Sample B was prepared with 20 grams watermelon flavor concentrate and 80 grams 1,3-propanediol. Each of the samples was further diluted by adding 0.08 grams of each diluted concentrate to 99.92 grams water to provide a flavor water solution.
The diluted samples were analyzed by Proton Transfer Reaction Mass Spectrometry (PTR-MS; model TOF-8000 from Ionicon Analytik Inc.) for real-time headspace release volatiles measurement. Samples were analyzed in triplicate. […]. […].

[4] = PTR-MS headspace release at various flavor compound to 1,3-propanediol or PG ratios (Example 2); conditions: for release suppressed in the presence of 1,3-propanediol: 10% cut-off for significant difference, relative to PG; for Percent Suppression by 1,3-propanediol: (IZ−IPG)/IPG×100
Protocol: The compounds listed below in Table 3 were added together to provide a liquid flavoring to analyze the role, if any, of the amount of 1,3-propanediol on flavor release. […] The amount of each flavor compound in the beverage was held constant at 8 ppm except furfuryl mercaptan was included at 1.6 ppm while the amount of propylene glycol or 1,3-propanediol varied.
The percent suppression was calculated using the following formula: (IZ−IPG)/IPG×100, where I is peak height, “Z” is 1,3-propanediol and “PG” is propylene glycol.

[5] = ratio 0.005:100, negative = suppressed vs PG

SMILES | Release Differences [1] | release in 1,3-propanediol versus propylene glycol, solvent/solvent [1] | PTR-MS headspace release in 1,3-butanediol [2] | PTR-MS headspace release in 1,3-propanediol [2] | PTR-MS headspace release in 1,4-butanediol [2] | PTR-MS headspace release in 1,7-heptanediol [2] | PTR-MS headspace release in Propylene glycol [2] | Percent suppression by 1,3-butanediol relative to 1,4-butanediol [2] | Sample B (1,3-propanediol) Mean [3] | Sample A (PG) Mean [3] | Percent Release Difference [3] | release suppressed in the presence of 1,3-propanediol [4] | effect of 1,3-propanediol on release ([4]; flavor/1,3-propanediol ratio of 0.005:100, 0.05:100, and 5:100) | effect of 1,3-propanediol on release ([4]; ratio 0.005:100) | Percent Suppression by 1,3-propanediol [4, 5] | Percent Suppression by 1,3-propanediol ([4]; ratio 0.05:100) | Percent Suppression by 1,3-propanediol ([4]; ratio 5:100) | Percent Suppression by 1,3-propanediol ([4]; ratio 15:100) | effect of 1,3-propanediol on release ([4]; flavor/1,3-propanediol ratio of 0.05:100 and 5:100)
CC=O [Acetaldehyde] | Z | released faster (as evidenced by higher headspace concentration) in 1,3-propanediol | 157.0 | 104.00 | 196.5 | 206.5 | 165.85 | −25.2% | 877 | 803.33 | 9.1% | suppressed | significant suppression effect | still suppressed | −22.1% | −37.3% | −57.4% | 64.5% | –
O=Cc1ccccc1 [Benzaldehyde] | P | – | 250.0 | 13.20 | 354.0 | 357.5 | 136.25 | −41.6% | 32.00 | 39.67 | −19.3% | suppressed | – | – | −0.5% | −90.3% | −40.6% | −16.2% | significant suppression effect
CCCC(=O)OCC [Ethyl butyrate] | Z | – | 141.5 | 46.20 | 239.3 | 223.5 | 40.20 | −69.10% | 5827 | 10983 | −46.9% | – | – | – | 3.2% | 14.9% | −21.8% | −3.3% | –
